Test results taken from ChEMBL document CHEMBL3885881, “DrugMatrix”.

Organism: Rattus norvegicus
Assay: DrugMatrix - Regimen: Daily Repeat
Type: toxicity, organism-based, Sprague-Dawley
Set-up: regimen Daily Repeat, gender Male, age 6-8 weeks
Conditions: in vivo, sc, route mini-PUMP - SUBCUTANEOUS, vehicle 100 % SALINE
[1] = 2 mg/kg, 72 h, tissue Blood, dose level High, time 3 day
[2] = 2 mg/kg, 72 h, tissue Plasma, dose level High, time 3 day
[3] = 2 mg/kg, 120 h, tissue Blood, dose level High, time 5 day
[4] = 2 mg/kg, 120 h, tissue Plasma, dose level High, time 5 day
[5] = 2 mg/kg, […], tissue Blood, dose level High, time 14 day
[6] = 2 mg/kg, […], tissue Plasma, dose level High, time 14 day

For `CC(C)NCC(O)c1ccc(O)c(O)c1` (centres undefined) [ISOPROTERENOL], the “NUCLEATED RED BLOOD CELLS” value (0 mg/kg, […], tissue Blood, dose level Control, time 14 day) was 0.17 /100WBC, the “CREATINE PHOSPHOKINASE” value (0 mg/kg, […], tissue Plasma, dose level Control, time 14 day) was 262 u/L and the ABSOLUTE BASOPHIL [1] was 95 cells/µL. The ABSOLUTE EOSINOPHIL [1] was 95 cells/µL, the ABSOLUTE LYMPHOCYTE [1] was 13000 cells/µL and the ABSOLUTE MONOCYTE [1] was 420 cells/µL. For the same molecule, the BASOPHIL [1] was 0.5%, the EOSINOPHIL [1] was 0.55% and the “ERYTHROCYTE COUNT” value [1] was 6.36 x10E6/uL. For the same molecule, the HEMATOCRIT [1] was 43.4%, the HEMOGLOBIN [1] was 13 G/DL and the “LEUKOCYTE COUNT” value [1] was 17.82 x10E3/uL. For the same molecule, the LYMPHOCYTE [1] was 73.55%, the “MEAN CORPUSCULAR HEMOGLOBIN” value [1] was 20.5 pg and the “MEAN CORPUSCULAR HEMOGLOBIN CONCENTRATION” value [1] was 30.05 G/DL. The “MEAN CORPUSCULAR VOLUME” value [1] was 68.3 fL, the MONOCYTE [1] was 2.35% and the NEUTROPHIL [1] was 22.05%. For the same molecule, the “PLATELET COUNT” value [1] was 1170.5 x10E3/uL, the “ALANINE AMINOTRANSFERASE” value [2] was 32 u/L and the ALBUMIN [2] was 3.9 G/DL. For the same molecule, the “ALKALINE PHOSPHATASE” value [2] was 349 u/L, the “ASPARTATE AMINOTRANSFERASE” value [2] was 75.5 u/L and the “BLOOD UREA NITROGEN” value [2] was 17 mg/dL. The “CARBON DIOXIDE” value [2] was 40.5 mmol/L, the CHLORIDE [2] was 107 MEQ/L and the CHOLESTEROL [2] was 87.5 mg/dL. The “CREATINE PHOSPHOKINASE” value [2] was 449.5 u/L, the CREATININE [2] was 0.55 mg/dL and the GLUCOSE [2] was 141 mg/dL. It also gave an LIPASE [2] of 47.5 u/L, a PHOSPHORUS [2] of 9.6 mg/dL and a POTASSIUM [2] of 6.05 MEQ/L. The SODIUM [2] was 150.5 MEQ/L, the “TOTAL BILIRUBIN” value [2] was 0.3 mg/dL and the “TOTAL PROTEIN” value [2] was 6.25 G/DL. For the same molecule, the “URIC ACID” value [2] was 0.8 mg/dL, the ABSOLUTE BASOPHIL [3] was 50 cells/µL and the ABSOLUTE EOSINOPHIL [3] was 110 cells/µL. It also gave an ABSOLUTE LYMPHOCYTE [3] of 10400 cells/µL, an ABSOLUTE MONOCYTE [3] of 350 cells/µL and a BASOPHIL [3] of 0.37%. For the same molecule, the EOSINOPHIL [3] was 0.83%, the “ERYTHROCYTE COUNT” value [3] was 6.25 x10E6/uL and the HEMATOCRIT [3] was 42.73%. For the same molecule, the HEMOGLOBIN [3] was 12.9 G/DL, the “LEUKOCYTE COUNT” value [3] was 14.26 x10E3/uL and the LYMPHOCYTE [3] was 72.93%. The “MEAN CORPUSCULAR HEMOGLOBIN” value [3] was 20.63 pg, the “MEAN CORPUSCULAR HEMOGLOBIN CONCENTRATION” value [3] was 30.17 G/DL and the “MEAN CORPUSCULAR VOLUME” value [3] was 68.4 fL. For the same molecule, the MONOCYTE [3] was 2.5%, the NEUTROPHIL [3] was 22.8% and the “PLATELET COUNT” value [3] was 1375.33 x10E3/uL. For the same molecule, the “ALANINE AMINOTRANSFERASE” value [4] was 41.67 u/L, the ALBUMIN [4] was 3.77 G/DL and the “ALKALINE PHOSPHATASE” value [4] was 331.33 u/L. For the same molecule, the “ASPARTATE AMINOTRANSFERASE” value [4] was 78 u/L, the “BLOOD UREA NITROGEN” value [4] was 15.33 mg/dL and the “CARBON DIOXIDE” value [4] was 39.67 mmol/L. For the same molecule, the CHLORIDE [4] was 108 MEQ/L, the CHOLESTEROL [4] was 85.67 mg/dL and the “CREATINE PHOSPHOKINASE” value [4] was 183 u/L. It also gave a CREATININE [4] of 0.57 mg/dL, a GLUCOSE [4] of 168.33 mg/dL and an LIPASE [4] of 99 u/L. For the same molecule, the PHOSPHORUS [4] was 10.23 mg/dL, the POTASSIUM [4] was 5.97 MEQ/L and the SODIUM [4] was 150 MEQ/L. The “TOTAL BILIRUBIN” value [4] was 0.33 mg/dL, the “TOTAL PROTEIN” value [4] was 6.03 G/DL and the “URIC ACID” value [4] was 1 mg/dL. For the same molecule, the ABSOLUTE BASOPHIL [5] was 60 cells/µL, the ABSOLUTE EOSINOPHIL [5] was 110 cells/µL and the ABSOLUTE LYMPHOCYTE [5] was 11600 cells/µL. For the same molecule, the ABSOLUTE MONOCYTE [5] was 300 cells/µL, the BASOPHIL [5] was 0.42% and the EOSINOPHIL [5] was 0.72%. The “ERYTHROCYTE COUNT” value [5] was 6.69 x10E6/uL, the HEMATOCRIT [5] was 44.4% and the HEMOGLOBIN [5] was 14.28 G/DL. For the same molecule, the “LEUKOCYTE COUNT” value [5] was 14.87 x10E3/uL, the LYMPHOCYTE [5] was 78.08% and the “MEAN CORPUSCULAR HEMOGLOBIN” value [5] was 21.3 pg. The “MEAN CORPUSCULAR HEMOGLOBIN CONCENTRATION” value [5] was 32.12 G/DL, the “MEAN CORPUSCULAR VOLUME” value [5] was 66.4 fL and the MONOCYTE [5] was 1.94%. The NEUTROPHIL [5] was 18.22%, the “PLATELET COUNT” value [5] was 1074.6 x10E3/uL and the “ALANINE AMINOTRANSFERASE” value [6] was 40.6 u/L. For the same molecule, the ALBUMIN [6] was 4 G/DL, the “ALKALINE PHOSPHATASE” value [6] was 424.4 u/L and the “ASPARTATE AMINOTRANSFERASE” value [6] was 98.2 u/L. For the same molecule, the “BLOOD UREA NITROGEN” value [6] was 19.2 mg/dL, the “CARBON DIOXIDE” value [6] was 38.8 mmol/L and the CHLORIDE [6] was 105.8 MEQ/L. For the same molecule, the CHOLESTEROL [6] was 73.4 mg/dL, the “CREATINE PHOSPHOKINASE” value [6] was 274.2 u/L and the CREATININE [6] was 0.8 mg/dL. For the same molecule, the GLUCOSE [6] was 132 mg/dL, the “LACTATE DEHYDROGENASE” value [6] was 214.4 u/L and the LIPASE [6] was 11.8 u/L. The PHOSPHORUS [6] was 9.98 mg/dL, the POTASSIUM [6] was 6.02 MEQ/L and the SODIUM [6] was 149.2 MEQ/L. For the same molecule, the “TOTAL BILIRUBIN” value [6] was 0.36 mg/dL, the “TOTAL PROTEIN” value [6] was 6.46 G/DL and the “URIC ACID” value [6] was 0.62 mg/dL. The “ABSOLUTE BASOPHIL” value ([…], 72 h, tissue Blood, dose 4.2 mg/Kg, dose level M1, time 3 day) was 0 CELLS/uL.
